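Values below derive from 48-hour exposures of cells grown in 96-well plates, with endpoints linearly interpolated between the two concentrations bracketing the appropriate inhibition level. At the GI50, growth is halved.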 Activity calls are given as the source filed them. No stated cut-off is given here; in the data, active = GI50 up to about 1.1 µM and inactive = higher.
Experiments:
Experiment in all cases: NCI tumour cell line growth inhibition, 48 h
NCI-H460 = system: NCI-H460
CCRF-CEM = system: CCRF-CEM
HL-60 = system: HL-60
TK-10 = system: TK-10
SF-268 = system: SF-268
SNB-75 = system: SNB-75
SNB-19 = system: SNB-19
RXF 393 = system: RXF 393
MDA-MB-435 = system: MDA-MB-435
MDA-MB-231 = system: MDA-MB-231
HT-29 = system: HT-29
UO-31 = system: UO-31
OVCAR-5 = system: OVCAR-5
MCF7 = system: MCF7
NCI/ADR-RES = system: NCI/ADR-RES
NCI-H226 = system: NCI-H226
OVCAR-8 = system: OVCAR-8
NCI-H522 = system: NCI-H522
A549 = system: A549
PC-3 = system: PC-3

Row | Structure (SMILES) | GI50 (NCI-H460) | GI50 (CCRF-CEM) | GI50 (HL-60) | GI50 (TK-10) | GI50 (SF-268) | GI50 (SNB-75) | GI50 (SNB-19) | GI50 (RXF 393) | GI50 (MDA-MB-435) | GI50 (MDA-MB-231) | GI50 (HT-29) | GI50 (UO-31) | GI50 (OVCAR-5) | GI50 (MCF7) | GI50 (NCI/ADR-RES) | GI50 (NCI-H226) | GI50 (OVCAR-8) | GI50 (NCI-H522) | GI50 (A549) | GI50 (PC-3)
1 | CCc1c(C)c(C#N)c(=S)n(C2OC(CO)C(O)C(O)C2O)c1C (stereo not given) | > 100 µM (inactive) | > 100 µM (inactive) | > 100 µM (inactive) | > 100 µM (inactive) | > 100 µM (inactive) | 65.2 µM (inactive) | > 100 µM (inactive) | > 100 µM (inactive) | > 100 µM (inactive) | > 100 µM (inactive) | > 100 µM (inactive) | > 100 µM (inactive) | > 100 µM (inactive) | > 100 µM (inactive) | > 100 µM (inactive) | > 100 µM (inactive) | > 100 µM (inactive) | > 100 µM (inactive) | > 100 µM (inactive) | > 100 µM (inactive)
2 | CC(=O)N(C(=O)CC(=O)NNCc1ccccc1Cl)c1ccc(Cl)cc1 | > 10 µM (inactive) | > 10 µM (inactive) | > 10 µM (inactive) | > 10 µM (inactive) | > 10 µM (inactive) | > 10 µM (inactive) | > 10 µM (inactive) | > 10 µM (inactive) | > 10 µM (inactive) | > 10 µM (inactive) | > 10 µM (inactive) | > 10 µM (inactive) | > 10 µM (inactive) | 5.97 µM (inactive) | > 10 µM (inactive) | > 10 µM (inactive) | > 10 µM (inactive) | > 10 µM (inactive) | > 10 µM (inactive) | > 10 µM (inactive)
3 | COc1ccc([N+](=O)[O-])c2c(NCCCN(C)C)c3ccccc3nc12 | 0.0355 µM (active) | 0.546 µM (active) | 0.662 µM (active) | 0.399 µM (active) | 0.236 µM (active) | 0.222 µM (active) | 0.202 µM (active) | 0.0838 µM (active) | 0.306 µM (active) | 0.466 µM (active) | 0.07 µM (active) | 0.255 µM (active) | 0.272 µM (active) | 0.0155 µM (active) | 2.87 µM (inactive) | 0.225 µM (active) | 0.288 µM (active) | 0.0286 µM (active) | 0.0843 µM (active) | 0.0276 µM (active)
4 | CCOC(=O)C1C(=O)CC(C)(O)C(C(=O)OCC)C1c1ccc(O)c(OC)c1 (stereo not given) | > 100 µM (inactive) | > 100 µM (inactive) | > 100 µM (inactive) | > 100 µM (inactive) | > 100 µM (inactive) | > 100 µM (inactive) | > 100 µM (inactive) | > 100 µM (inactive) | > 100 µM (inactive) | > 100 µM (inactive) | > 100 µM (inactive) | > 100 µM (inactive) | > 100 µM (inactive) | > 100 µM (inactive) | > 100 µM (inactive) | > 100 µM (inactive) | > 100 µM (inactive) | > 100 µM (inactive) | > 100 µM (inactive) | > 100 µM (inactive)
5 | CN(C)CCC(=O)N1C/C(=C\c2ccc(Cl)c(Cl)c2)C(=O)/C(=C/c2ccc(Cl)c(Cl)c2)C1 | 0.479 µM (active) | 0.0269 µM (active) | 0.0435 µM (active) | 0.625 µM (active) | 0.309 µM (active) | 0.415 µM (active) | 0.287 µM (active) | 0.269 µM (active) | 0.347 µM (active) | 0.127 µM (active) | 0.188 µM (active) | 0.336 µM (active) | 0.731 µM (active) | 0.14 µM (active) | 0.147 µM (active) | 0.705 µM (active) | 0.265 µM (active) | 0.2 µM (active) | 0.531 µM (active) | 0.102 µM (active)
6 | CCN(CC)CCCNc1nncc2c(C)c3[nH]c4ccc(OC)cc4c3cc12 | 0.789 µM (active) | 0.0535 µM (active) | 0.91 µM (active) | 2.82 µM (inactive) | 0.706 µM (active) | 0.64 µM (active) | 0.318 µM (active) | 1.32 µM (inactive) | 1.11 µM (active) | 0.716 µM (active) | 0.504 µM (active) | 3.17 µM (inactive) | 1.25 µM (inactive) | 0.0975 µM (active) | 38.8 µM (inactive) | 0.0557 µM (active) | 0.182 µM (active) | 0.0256 µM (active) | 0.718 µM (active) | 0.358 µM (active)

From ChEMBL document CHEMBL1201862, “PubChem BioAssay data set” (2004)
